Entries after “also recorded” stand apart in the source; their conditions may differ.
Tests used:
Keratinocytes = assay: Toxicity via ATP-based assay (Cell titer glow); conditions: ATP-based assay 2 days after start of treatment
Dermal Fibroblasts = assay: Toxicity via ATP-based assay (Cell titer glow); conditions: ATP-based assay 2 days after start of treatment
human skin explants [1] = assay: Pigmentation of human skin explants treated topically or intradermally with NNT inhibitors (visual inspection, colorimeter, Fontana-Masson staining); format: cell-based; conditions: for microscopic pigmentation / eumelanin, Fontana-Masson staining: 50 mM, once per day for 5 consecutive days; for human skin pigmentation (darkening): daily application for 5 days
Description: Human skin explants obtained from subjects undergoing abdominoplasty were defatted and grown on 2% agar plates for 10 days. These explants were treated topically or intradermally with NNT inhibitors. […]
In addition, skin patches (Fitzpatrick Type II) were topically treated for 4 days with 2,3 butane-dione at the following concentrations: 0.4% w/v (˜47 mM), 0.8% w/v, 1.6% w/v, 3.12% w/v, 6.25% w/v, 12.5% w/v, and 25% w/v.

Melanocytes 1 = assay: Toxicity via ATP-based assay (Cell titer glow); conditions: ATP-based assay 2 days after start of treatment
Description: (§1) Three different NNT inhibitors were tested for efficacy and toxicity in melanocytes and melanoma cells. […] Toxicity measured via ATP-based assays (Cell titer glow) 2 days after start of treatment.

Melanocytes 2 = assay: Toxicity via ATP-based assay (Cell titer glow); conditions: ATP-based assay 2 days after start of treatment
Description: as §1

human skin explants [2] = assay: H&E staining of treated skin samples (inflammation, skin damage); format: cell-based; conditions: 50 mM, skin patches
human skin = assay: Cyclobutane dimer (CPD) staining of treated human skin, DNA damage; format: cell-based; conditions: 50 mM once per day for 5 days; for CPD formation after UVB irradiation: then 1000 mJ/cm^2 UVB, vs DMSO+UVB control
Description: Cyclobutane dimer (CPD) staining was performed on human skin treated with 50 mM 2,3butanedione for 5 consecutive days (treatment once per day) as a marker to assess DNA damage in the skin samples. On the fifth day, skin was irradiated with 1000 mJ/cm^2 UVB (equivalent to approximately 3 h in the sun at equatorial areas).

Melan-A cells = assay: Measurement of eumelanin in murine melanocytes; format: cell-based
UACC 257 melanoma = assay: BrdU ELISA toxicity; format: cell-based, human; conditions: 3 days after treatment
Description: (§2) FIGS. 8A-8B show BrdU ELISA data 3 days after DCC treatment.
(§3) In one embodiment, the viability of a cell or the proliferation of a cell is determined using a bromodeoxyuridine (BrdU) assay. BrdU is a synthetic analog of thymidine that is commonly used in the detection of proliferating cells in living tissues. BrdU can be incorporated into the newly synthesized DNA of replicating cells (during the S phase of the cell cycle), substituting for thymidine during DNA replication. Antibodies specific for BrdU can then be used to detect the incorporated chemical, thus indicating cells that were actively replicating their DNA. BrdU assays are well known to those of skill in the art and are not described in detail herein. In some embodiments, an ATP=based measurement can be used (e.g., Cell Titer Glow™).

WM26 primary melanocytes = assay: BrdU ELISA toxicity; format: cell-based, human; conditions: 3 days after treatment
Description: as §2, §3

[3] = system: primary melanocytes (PM) WM26 cells; assay: GSH/GSSG measurements after DCC treatment; format: cell-based, human; conditions: primary melanocytes WM26, 3 days after DCC treatment
Description: (§4) FIGS. 7A-7C show GSH/GSSG ratios 3 days after N,N-Dicyclohexylcarbodiimide (DCC) treatment. To confirm the observation by Moody et al. (Biochem J., 1983) that DCC and Butanedione inhibit NNT enzyme activity, GSH/GSSG measurements were performed in human melanoma and primary melanocytes. […] FIG. 7A, GSH and GSSG measurements in UACC257 melanoma cells. FIG. 7B, GSH and GSSG measurements in primary melanocytes (PM) WM26 cells. FIG. 7C, GSH/GSSG ratios of UACC257 melanoma and […] primary melanocytes. *, indicates significant differences (p<0.05).
(§5) In one embodiment GSH/GSSG ratios are determined using the GSH/GSSG-GLO assay commercially available from PROMEGA.

UACC257 melanoma cells = assay: GSH/GSSG measurements after DCC treatment; format: cell-based, human; conditions: 3 days after DCC treatment
Description: as §4, §5

CCCCCCCCCCCCCCCC(=O)SCCNC(=O)CCNC(=O)[C@H](O)C(C)(C)COP(=O)(O)OP(=O)(O)OC[C@H]1O[C@@H](n2cnc3c(N)ncnc32)[C@H](O)[C@@H]1OP(=O)(O)O [Palmitoyl-CoA, palmitoyl CoA]
IC50 (Keratinocytes; Keratinocyte, 48 h): > 10 µM | IC50 (Dermal Fibroblasts; Fibroblast, 48 h): > 10 µM | skin darkening after intradermal treatment (human skin explants [1]; intradermal, human skin explants): induced darkening | skin penetration after topical application (human skin explants [1]; topical, human skin explants): unable to penetrate | IC50 (Melanocytes 1; Melanocyte, 48 h): > 10 µM | IC50 (Melanocytes 2; Melanocyte, 48 h): > 10 µM

CC(=O)C(C)=O [2,3 Butanedione, 2,3-butanedione]
IC50 (Keratinocytes; Keratinocyte, 48 h): > 10 µM | IC50 (Dermal Fibroblasts; Fibroblast, 48 h): > 10 µM | microscopic pigmentation / eumelanin, Fontana-Masson staining (human skin explants [1]): increase in eumelanin expression | microscopic pigmentation / eumelanin, Fontana-Masson staining (human skin explants [1]; listed as 2,3 BD): significant microscopic pigmentation | pigmentation compared with one-time UV-B treatment at 150 mJ/cm^2 (human skin explants [1]; Fitzpatrick Type II skin patches, topical 4 days, lowest concentration 0.4% w/v (~47 mM)): darker than the pigmentation induced by a one-time UV-B treatment | pigmentation with increasing concentrations (human skin explants [1]; Skin type 2 (Fitzpatrick Scale) explant, in DMSO): increase pigmentation | lowest dose at which visible changes in skin pigmentation were observed (human skin explants [1]; once per day for five consecutive days, all three skin types (Fitzpatrick I-II, III-IV, V-VI), lowest dose tested): 1.2 µM | human skin pigmentation (darkening) (human skin explants [1]; topical, human skin explants): visible increase of human skin pigmentation | human skin pigmentation (darkening) (human skin explants [1]; topical, human skin explants, listed as 2,3 BD): significant darkening | inflammation or skin damage, H&E staining (human skin explants [2]): no inflammation was observed | inflammation or skin damage, H&E staining (human skin explants [2]; listed as 2,3 BD): No significant inflammation or skin damage | IC50 (Melanocytes 1; Melanocyte, 48 h): > 10 µM | IC50 (Melanocytes 2; Melanocyte, 48 h): > 10 µM | CPD formation after UVB irradiation (human skin; listed as 2, 3, butanedione): decrease in CPD | CPD formation after UVB irradiation (human skin; listed as 2,3BD): protective role | CPD formation in the absence of UV radiation exposure (human skin; vs DMSO treated control): decrease in CPD formation | pigmentation (eumelanin) (Melan-A cells; 2 mM): increased pigmentation | pigmentation (eumelanin) (Melan-A cells; 10 mM): increased pigmentation

C(=NC1CCCCC1)=NC1CCCCC1 [DCC, N,N-Dicyclohexylcarbodiimide]
cell death (BrdU ELISA) (UACC 257 melanoma): no significant induction of cell death | cell death (BrdU ELISA) (WM26 primary melanocytes): no significant induction of cell death | IC50 (Keratinocytes): > 10 µM | IC50 (Dermal Fibroblasts): > 10 µM | human skin pigmentation (darkening) (human skin explants [1]; topical, human skin explants): significant darkening; also recorded: visible increase of human skin pigmentation | GSH/GSSG ratios [3]: decreased in a dose-dependent manner | GSH/GSSG ratios (UACC257 melanoma cells): decreased in a dose-dependent manner | IC50 (Melanocytes 1): > 10 µM | IC50 (Melanocytes 2): > 10 µM | pigmentation (eumelanin) (Melan-A cells; 10 mM): increased pigmentation

Reference: patent US9883996B2, “Methods and compositions for enhancing skin pigmentation” (THE GENERAL HOSPITAL CORPORATION, priority 2014, dated 2018)
